In patent US9687539B2, “CD4+ T survivin epitopes and uses thereof” (Commissariat a I'Energie Atomique, priority 2005, dated 2017):
Substitutions are numbered along the chain they refer to. Read-outs that look alike come from different tables or passages of the source. Residues, ends and D or L forms follow the SMILES beside them. No end group written: not given here.

Tests used:
[1] = biological target: HLA-DR15 (DRB1*1501) (Homo sapiens, UniProt P01903+P01911); test: Competitive HLA II/peptide binding assay, HLA-DR15; conditions: competition with biotinylated tracer; 3 independent experiments
[2] = biological target: T1, HLA-DP402 (DP*0402) (Homo sapiens, UniProt P04440+P20036, A65V/A84D/A85E/L207M); test: biochemical; conditions: competition with biotinylated tracer; 3 independent experiments; read-out: Binding activity DP402 (IC50)
T1 sequence (P04440 30-258 A65V/A84D/A85E): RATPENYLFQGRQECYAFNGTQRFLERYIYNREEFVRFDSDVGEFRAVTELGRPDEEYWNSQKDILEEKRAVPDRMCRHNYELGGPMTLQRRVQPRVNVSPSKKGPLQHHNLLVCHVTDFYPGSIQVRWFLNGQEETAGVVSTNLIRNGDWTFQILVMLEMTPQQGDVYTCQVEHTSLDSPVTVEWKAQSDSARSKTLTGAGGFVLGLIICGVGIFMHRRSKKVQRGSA
T1 sequence (P20036 29-260): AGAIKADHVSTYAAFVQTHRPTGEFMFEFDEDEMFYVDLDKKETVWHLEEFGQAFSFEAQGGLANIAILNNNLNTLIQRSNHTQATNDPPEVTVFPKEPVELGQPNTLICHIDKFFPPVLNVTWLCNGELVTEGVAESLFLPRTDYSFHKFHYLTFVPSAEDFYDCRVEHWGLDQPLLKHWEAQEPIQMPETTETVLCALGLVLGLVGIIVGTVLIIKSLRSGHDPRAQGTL

[3] = biological target: HLA-DRB4 (DRB4*0101) (Homo sapiens, UniProt P01903+P13762, G164S); test: Competitive HLA II/peptide binding assay, HLA-DRB4; conditions: competition with biotinylated tracer; 3 independent experiments
[4] = tested on: 12 predominant HLA II molecules; test: Binding to the 12 predominant HLA II molecules, summary; parameters: species or system human; conditions: for No. of molecules fixed: number of the 12 predominant HLA II molecules bound (IC50 < 1000 nM)
Source text: The assays for binding to HLA II molecules are competitive binding assays with immunoenzymatic visualization, as described in U.S. Pat. No. 6,649,166, Texier et al., J. Immunol., 2000, 164, 3177-3184 and Texier et al., Eur. J. Immunol., 2001, 31, 1837-1846, for the HLA-DR molecules, and in PCT international application WO 03/040299 and Castelli et al., J. Immunol., 2002, 169, 6928-6934, for the HLA-DP4 molecule. The use of these assays for measuring the binding activity of peptides derived from various antigens is illustrated in U.S. Pat. No. 6,649,166 and PCT international applications WO 02/090382, WO 03/040299 and WO 2004/014936.
The sensitivity of each assay is reflected by the IC50 values observed with the nonbiotinylated peptides which correspond to the tracers; the IC50 values of the tracers vary by a factor of less than three.

[5] = biological target: T2, HLA-DP401 (DP*0401) (Homo sapiens, UniProt P04440+P20036); test: biochemical; conditions: competition with biotinylated tracer; 3 independent experiments; read-out: Binding activity DP401 (IC50)
T2 sequence (P04440 30-258): T1 sequence (P04440 30-258 A65V/A84D/A85E) with V36A, D55A, E56A
T2 sequence (P20036 29-260): T1 sequence (P20036 29-260)

[6] = tested on: HLA-DP4-restricted CD4+ T lymphocyte lines; test: Immunogenicity in an HLA-DP4 context, IFN-γ ELISPOT; type: cell-based, human; conditions: for Number of spots: peptide presented by HLA-DP4, mean (±SD)
Procedure: HLA-DP4-restricted survivin-specific CD4+ T lymphocyte lines were produced using the mixture of peptides 84-98, 93-107, 90-104 and 19-33 for the stimulation of the autologous dendritic cells, according to a protocol similar to that use for the production of T lymphocyte lines restricted to the set of HLA-DR molecules predominant in the Caucasian population.
The anti-IFN-γ human monoclonal antibody 1-D1K (MABTECH), diluted to 10 μg/ml in PBS buffer, was adsorbed onto nitrocellulose plates (Multiscreen HA; Millipore) for 1 hour at 37° C. The plates were subsequently washed with PBS and then saturated with complete IMDM medium (100 μl/well), for 1 h at 37° C. The antigen-presenting cells are autologous PBMCs, immature autologous dendritic cells prepared as specified above, or a mouse fibroblast line (line L), transfected with the cDNA encoding one of the HLA-DR or HLA-DP4 molecules to be tested (Yu et al. Hum. Immunol. 1990, 27, 132-135), so as to verify the specificity of the lines with respect to the HLA-DR and HLA-DP4 molecules. The antigen-presenting cells (10^5 autologous PBMCs, 3×10^4 transfected L cells or 2×10^4 immature autologous dendritic cells) and the CD4+ T lymphocytes to be tested (10^4 CD4+ T lymphocytes) were subsequently added to the plates and incubated for 24 h at 37° C., in the presence or absence of a single peptide (2 μg), of a mixture of peptides (2 μg of each peptide) or of a protein (Bir5 or Nef). The proteins (1 μM) are incubated for 4 h at 37° C. in the presence of immature dendritic cells, and then washed. The peptides are added directly to the plates. For the dose-response analyses, the peptides are used at various concentrations ranging from 10^−5 to 10^−10 M. After three successive washes with water, and then with PBS buffer-0.05% Tween and, finally, with PBS alone, 100 μl of biotin-conjugated anti-IFN-γ secondary antibody (7-B6-1-biotin, MABTECH), diluted to 0.25 μg/ml in PBS containing 1% BSA, were added to each well. After incubation for one hour, the plates were washed again and incubated with 100 μl/well of extravidin-phosphatase (E-2636, SIGMA), diluted to 1/6000. After washing of the plates in PBS buffer, 100 μl of NBT/BCIP substrate (B-5655, SIGMA), diluted in water (one tablet in 10 ml of water), were distributed into each well. The immunoenzymatic revelation was stopped after approximately 10 minutes by thorough rinsing of the plates in water, and the colored spots were counted using an automatic reader (ELISPOT reader system, AID). The lines are considered to be positive when the number of spots is greater than three times that obtained with the negative control (control without peptides) with a minimum of 50 spots. The control without presenting cells makes it possible to verify the specificity of the response for HLA-DR or HLA-DP4 (restriction control).

[7] = biological target: HLA-DR13 (DRB1*1301) (Homo sapiens, UniProt P01903+P01911, A100E/A169T/K41T/L162R/M171V/P40S/Q125H/Q178H/Q39Y/Q99D/R42S/S66N/T262R/W38E/Y61H); test: Competitive HLA II/peptide binding assay, HLA-DR13
[8] = biological target: HLA-DR3 (DRB1*0301) (Homo sapiens, UniProt P01903+P01911, A100K/A102G/A103R/A169T/F55Y/I96L/K41T/L162R/M171V/P40S/Q125H/Q178H/Q39Y/R42S/S66N/T106N/T262R/W38E/Y61H); test: biochemical; conditions: competition with biotinylated tracer; 3 independent experiments; read-out: Binding activity DR3 (IC50)
[9] = biological target: HLA-DRB5 (DRB5*0101) (Homo sapiens, UniProt P01903+Q30154); test: Competitive HLA II/peptide binding assay, HLA-DRB5; conditions: competition with biotinylated tracer; 3 independent experiments

CC[C@H](C)[C@H](NC(=O)[C@H](CCCNC(=N)N)NC(=O)[C@H](Cc1c[nH]cn1)NC(=O)[C@H](CC(=O)O)NC(=O)[C@H](CCCCN)NC(=O)[C@H](CC(C)C)NC(=O)[C@H](Cc1ccccc1)NC(=O)[C@@H]1CCCN1C(=O)[C@H](CCC(N)=O)NC(=O)[C@H](Cc1c[nH]c2ccccc12)NC(=O)[C@H](C)NC(=O)[C@@H]1CCCN1)C(=O)N[C@@H](CO)C(=O)N[C@H](C(=O)N[C@@H](Cc1ccccc1)C(=O)O)[C@@H](C)O [8-22, P A W Q P F L K D H R I S T F]
IC50 [1]: 5.2 µM
IC50 [2]: 10.5 µM
IC50 [3]: 29 µM
No. of molecules fixed [4]: 1

CC(C)C[C@H](NC(=O)[C@H](Cc1ccccc1)NC(=O)[C@@H]1CCCN1C(=O)[C@H](Cc1c[nH]c2ccccc12)NC(=O)[C@H](CC(N)=O)NC(=O)[C@@H](N)CCCCN)C(=O)N[C@@H](CCC(=O)O)C(=O)NCC(=O)N[C@@H](CS)C(=O)N[C@@H](C)C(=O)N[C@@H](CS)C(=O)N[C@H](C(=O)N1CCC[C@H]1C(=O)N[C@@H](CCC(=O)O)C(=O)N[C@@H](CCCNC(=N)N)C(=O)O)[C@@H](C)O [23-37, K N W P F L E G C A C T P E R] (H-KNWPFLEGCACTPER-OH; N-terminus and C-terminus assumed)
No. of molecules fixed [4]: 1

CC(C)C[C@H](NC(=O)[C@H](CC(=O)O)NC(=O)[C@@H]1CCCN1)C(=O)N[C@@H](C)C(=O)N[C@@H](CCC(N)=O)C(=O)N[C@@H](CS)C(=O)N[C@@H](Cc1ccccc1)C(=O)N[C@@H](Cc1ccccc1)C(=O)N[C@@H](CS)C(=O)N[C@@H](Cc1ccccc1)C(=O)N[C@@H](CCCCN)C(=O)N[C@@H](CCC(=O)O)C(=O)N[C@@H](CC(C)C)C(=O)N[C@@H](CCC(=O)O)C(=O)NCC(=O)O [52-66, P D L A Q C F F C F K E L E G] (H-PDLAQCFFCFKELEG-OH; N-terminus and C-terminus assumed)
Binding specificity for HLA II molecules [4]: bind only to the HLA-DR11 molecule
No. of molecules fixed [4]: 1

CC(C)C[C@H](NC(=O)[C@H](CCC(=O)O)NC(=O)[C@H](CCCCN)NC(=O)[C@H](Cc1ccccc1)NC(=O)[C@H](CS)NC(=O)[C@H](Cc1ccccc1)NC(=O)[C@H](Cc1ccccc1)NC(=O)[C@H](CS)NC(=O)[C@@H](N)CCC(N)=O)C(=O)N[C@@H](CCC(=O)O)C(=O)NCC(=O)N[C@@H](Cc1c[nH]c2ccccc12)C(=O)N[C@@H](CCC(=O)O)C(=O)N1CCC[C@H]1C(=O)N[C@@H](CC(=O)O)C(=O)O [56-70, Q C F F C F K E L E G W E P D] (H-QCFFCFKELEGWEPD-OH; N-terminus and C-terminus assumed)
No. of molecules fixed [4]: 1

CC[C@H](C)[C@H](NC(=O)[C@H](CCCCN)NC(=O)[C@@H](N)CC(N)=O)C(=O)N[C@@H](C)C(=O)N[C@@H](CCCCN)C(=O)N[C@@H](CCC(=O)O)C(=O)N[C@H](C(=O)N[C@@H](CC(N)=O)C(=O)N[C@@H](CC(N)=O)C(=O)N[C@@H](CCCCN)C(=O)N[C@@H](CCCCN)C(=O)N[C@@H](CCCCN)C(=O)N[C@@H](CCC(=O)O)C(=O)N[C@@H](Cc1ccccc1)C(=O)N[C@@H](CCC(=O)O)C(=O)O)[C@@H](C)O [111-125, N K I A K E T N N K K K E F E]
IC50 [5]: > 100 µM
IC50 [2]: > 100 µM
No. of molecules fixed [4]: 1

CC[C@H](C)[C@H](N)C(=O)N[C@@H](CO)C(=O)N[C@H](C(=O)N[C@@H](Cc1ccccc1)C(=O)N[C@@H](CCCCN)C(=O)N[C@@H](CC(N)=O)C(=O)N[C@@H](Cc1c[nH]c2ccccc12)C(=O)N1CCC[C@H]1C(=O)N[C@@H](Cc1ccccc1)C(=O)N[C@@H](CC(C)C)C(=O)N[C@@H](CCC(=O)O)C(=O)NCC(=O)N[C@@H](CS)C(=O)N[C@@H](C)C(=O)N[C@@H](CS)C(=O)O)[C@@H](C)O [peptide 19-33, I S T F K N W P F L E G C A C]
Number of spots ([6]; donor 169, line 169-14): 1 (±0)
Number of spots ([6]; donor 169, line 169-34): 228 (±17)
Number of spots ([6]; donor 169, line 169-56): 195 (±0)
Number of spots ([6]; donor 171, line 171-3): 5 (±0)
Immunogenicity in an HLA-DP4 context ([6]; mixture of peptides 84-98, 93-107, 90-104 and 19-33 used for stimulation): immunogenic in an HLA-DP4 context
No. of molecules fixed [4]: 7

E E L T L G E F L K L D R E R (EELTLGEFLKLDRER; listed as Homo sapiens) [94-108, 15-mer of human survivin, positions 94-108; insoluble peptide]
No. of molecules fixed [4]: 0

LSVKKQFEELTLGEF [87-101, L S V K K Q F E E L T L G E F]
IC50 ([7]; competition with biotinylated tracer, 3 independent experiments, read-out: Binding activity DR13 (IC50)): > 100000 nM
IC50 [8]: > 100 µM
No. of molecules fixed [4]: 2
IC50 [9]: 6 µM

QPFLKDHRISTFKNW [11-25, Q P F L K D H R I S T F K N W]
No. of molecules fixed [4]: 2

TERVRLVTRHIYNREE [B1 21-36, reference compound]
IC50 ([7]; DRB1*1301, tracer 100 nM, pH 4.5, 72 h, read-out: IC50 (nM) of nonbiotinylated tracer peptide): 800 nM
